For data set [1], the target named is T1, xanthine oxidase (XO) (Homo sapiens, UniProt P47989).
T1 construct: from tissue
The arrangement: method as in Aksenov et al. 2018 [23]. Conditions: fixed, not estimated; ref Aksenov et al. 2018 [23]; cited from earlier work.

Data set [2] has as its target T1, xanthine oxidase (XO). In words: Semi-mechanistic exposure-response uric acid model: XOI inhibition of uric acid production rate (clinical sUA/uUA data). The data set is classed as in vivo.
Text: (§1) All available clinical data from studies where modified release (MR4) or extended release (ER8) verinurad formulations were used in the present analysis, comprising 12 clinical studies of verinurad and including single ascending dose (SAD), multiple ascending dose (MAD), drug-drug interaction (DDI), and several phase 2a studies in several patient populations. […] In total, 434 individuals were incorporated in the integrated analysis.
(§2) To model the uric acid in circulation and urine, a semi-mechanistic model of uric acid disposition was used as a structural model [23], and is reproduced here for the reader’s convenience.
The key kinetic processes that constitute mass balance of uric acid in the body are production of uric acid, intestinal clearance, and renal clearance. The rate of change (mg/h) of the amount of uric acid in the systemic compartment A1 (mg) is given by the differential equation:1 dA1/dt=RP-RI-RR, where RP is the production rate, RI is intestinal elimination rate and RR is the renal excretion rate. The rate of intestinal elimination of uric acid (mg/h) is described by a first order kinetic process with respect to concentration of uric acid in the systemic compartment CUA (mg/L) according to:2 RI=CLI∗CUA where CLI is the intestinal clearance of uric acid (L/h). Concentration of uric acid in the systemic compartment is given by:3 CUA=A1/V1 where V1 is the volume of distribution (L).
(§3) The full system of differential equations of the model are the following, where A1 is the amount of uric acid (in mg) in the systemic circulation and A2 is the cumulative amount of uric acid (in mg) excreted in urine:8 dA1/dt=kin1-EmaxCX/EC50+CX-CLIA1/V1-eGFR∗A1/V1∗FEUA+EmaxCV/EC50+CVdA2/dt=eGFR∗A1/V1∗FEUA+EmaxCV/EC50+CVA10=V1kin/CLI+eGFR∗FEUAA20=0 where the initial condition A10 is calculated from steady-state assumption (solving the equation dA1/dt=0 ), and the initial condition for the cumulative amount in urine, A20, is set to zero.
In this work, we consider the extension to a mixed-effects model, with the ability to describe both mean response and variability in the population. In a mixed-effects model, parameters are modeled with statistical distributions to describe variability between individuals. We specified lognormal distributions for model parameters θi as follows:10 θi=θpopexpη where θpop is the typical value of the parameter in the population (median of the population distribution), and η is the random effect, normally distributed with mean zero and standard deviation ω.
The residual error model for concentration of uric acid in serum was an additive model (i.e. b = 0); for uric acid in urine, a combined additive and proportional model was used. […]
The nature of data set [3]: Population pharmacokinetic model, oxypurinol. The data set is classed as in vivo, human. The source says:
CL = CLTYP * (1 + log(1+k*DOSE_[…]))
Where CLTYP is typical value of clearance and k is a coefficient for verinurad dose (1/mg).

The target of data set [4] is T2, URAT1 (Homo sapiens, UniProt Q96S37).
T2 construct: from tissue; host or cells: kidney (proximal tubule) of human study subjects, in vivo
T2 sequence (Q96S37 1-553): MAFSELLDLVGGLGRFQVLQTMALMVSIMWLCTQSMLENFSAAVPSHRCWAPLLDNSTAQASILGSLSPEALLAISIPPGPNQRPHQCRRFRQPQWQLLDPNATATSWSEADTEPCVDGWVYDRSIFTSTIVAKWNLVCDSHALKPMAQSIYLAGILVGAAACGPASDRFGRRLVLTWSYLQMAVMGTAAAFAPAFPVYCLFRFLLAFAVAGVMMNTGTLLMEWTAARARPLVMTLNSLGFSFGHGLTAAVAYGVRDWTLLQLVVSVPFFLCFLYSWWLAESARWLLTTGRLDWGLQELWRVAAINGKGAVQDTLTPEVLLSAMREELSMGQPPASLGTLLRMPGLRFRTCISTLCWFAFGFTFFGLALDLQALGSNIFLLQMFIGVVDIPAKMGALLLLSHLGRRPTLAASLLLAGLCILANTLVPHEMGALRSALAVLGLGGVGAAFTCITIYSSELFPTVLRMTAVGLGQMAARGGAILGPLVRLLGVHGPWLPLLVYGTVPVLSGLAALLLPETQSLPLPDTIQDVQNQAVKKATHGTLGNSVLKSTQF
Put plainly: Semi-mechanistic exposure-response uric acid model: verinurad inhibition of uric acid reabsorption (clinical sUA/uUA data). The data set is classed as in vivo.
Text: as §1, §2
Key kinetic processes that constitute renal handling of uric acid are glomerular filtration of uric acid and renal excretion of uric acid. Uric acid is freely filtered into the proximal tubule and is reabsorbed via urate transporters back into the systemic circulation [25]. The input rate of filtration (also known as the filtered load) of uric acid into the kidney from the circulation is denoted FLin (mg/h), which is modelled to be equal to the concentration of uric acid in the systemic compartment multiplied by the glomerular filtration flow rate (GFR). In this work, the GFR is approximated using the CKD-EPI formula [26]. In the following equations, estimated GFR (eGFR) is given in L/h (1 ml/min/1.73 m^2 = 0.06 L/h) to have consistent units.
The rate of renal excretion of uric acid is calculated as the product of the input filtration rate and the fractional excretion coefficient (FEUA).6 RR=FLin∗FEUA=eGFR∗CUA∗FEUA
Verinurad increases the excretion rate by inhibiting the reabsorption of uric acid back to the circulation. An Emax model is used to describe the stimulating drug action of the FEUA according to the relationship:7 RR=eGFR∗CUA∗FEUA+EmaxCV/EC50+CV where CV denotes the plasma concentration of verinurad. The value FEUA + Emax is the maximum possible fractional excretion of uric acid achieved with a very large dose of verinurad. The value of EC50 is the plasma concentration of verinurad that results in half-maximal inhibition of reabsorption, i.e. when the fractional excretion is FEUA + Emax/2. The renal excretion rate RR is the rate of accumulation of uric acid in the bladder and can be indirectly estimated by measuring accumulation of uric acid in final, collected urine.
as §3
In this work, we consider the extension to a mixed-effects model, with the ability to describe both mean response and variability in the population. In a mixed-effects model, parameters are modeled with statistical distributions to describe variability between individuals. We specified lognormal distributions for model parameters θi as follows:10 θi=θpopexpη where θpop is the typical value of the parameter in the population (median of the population distribution), and η is the random effect, normally distributed with mean zero and standard deviation ω. […]

Data set [5] concerns the target T2, URAT1. More on the design: method as in PMID 21148271, PMID 18492088. Conditions: fixed, not estimated; consistent with FEUA in URAT1 loss of function mutations; cited from earlier work.

The source of these data is article PMC8225519, “A semi-mechanistic exposure–response model to assess the effects of verinurad, a potent URAT1 inhibitor, on serum and urine uric acid in patients with hyperuricemia-associated diseases” (Journal of Pharmacokinetics and Pharmacodynamics, 2021).

Each structure is given as a SMILES string. Several values for one entry are separate records, joined by “and”; a condition that tells them apart may be missing. Equal entries are not always repeated. Entries after “also recorded” stand apart in the source; their conditions may differ. Where two headings read alike, the source gives them in different places.

T1 sequence (P47989 whole entry): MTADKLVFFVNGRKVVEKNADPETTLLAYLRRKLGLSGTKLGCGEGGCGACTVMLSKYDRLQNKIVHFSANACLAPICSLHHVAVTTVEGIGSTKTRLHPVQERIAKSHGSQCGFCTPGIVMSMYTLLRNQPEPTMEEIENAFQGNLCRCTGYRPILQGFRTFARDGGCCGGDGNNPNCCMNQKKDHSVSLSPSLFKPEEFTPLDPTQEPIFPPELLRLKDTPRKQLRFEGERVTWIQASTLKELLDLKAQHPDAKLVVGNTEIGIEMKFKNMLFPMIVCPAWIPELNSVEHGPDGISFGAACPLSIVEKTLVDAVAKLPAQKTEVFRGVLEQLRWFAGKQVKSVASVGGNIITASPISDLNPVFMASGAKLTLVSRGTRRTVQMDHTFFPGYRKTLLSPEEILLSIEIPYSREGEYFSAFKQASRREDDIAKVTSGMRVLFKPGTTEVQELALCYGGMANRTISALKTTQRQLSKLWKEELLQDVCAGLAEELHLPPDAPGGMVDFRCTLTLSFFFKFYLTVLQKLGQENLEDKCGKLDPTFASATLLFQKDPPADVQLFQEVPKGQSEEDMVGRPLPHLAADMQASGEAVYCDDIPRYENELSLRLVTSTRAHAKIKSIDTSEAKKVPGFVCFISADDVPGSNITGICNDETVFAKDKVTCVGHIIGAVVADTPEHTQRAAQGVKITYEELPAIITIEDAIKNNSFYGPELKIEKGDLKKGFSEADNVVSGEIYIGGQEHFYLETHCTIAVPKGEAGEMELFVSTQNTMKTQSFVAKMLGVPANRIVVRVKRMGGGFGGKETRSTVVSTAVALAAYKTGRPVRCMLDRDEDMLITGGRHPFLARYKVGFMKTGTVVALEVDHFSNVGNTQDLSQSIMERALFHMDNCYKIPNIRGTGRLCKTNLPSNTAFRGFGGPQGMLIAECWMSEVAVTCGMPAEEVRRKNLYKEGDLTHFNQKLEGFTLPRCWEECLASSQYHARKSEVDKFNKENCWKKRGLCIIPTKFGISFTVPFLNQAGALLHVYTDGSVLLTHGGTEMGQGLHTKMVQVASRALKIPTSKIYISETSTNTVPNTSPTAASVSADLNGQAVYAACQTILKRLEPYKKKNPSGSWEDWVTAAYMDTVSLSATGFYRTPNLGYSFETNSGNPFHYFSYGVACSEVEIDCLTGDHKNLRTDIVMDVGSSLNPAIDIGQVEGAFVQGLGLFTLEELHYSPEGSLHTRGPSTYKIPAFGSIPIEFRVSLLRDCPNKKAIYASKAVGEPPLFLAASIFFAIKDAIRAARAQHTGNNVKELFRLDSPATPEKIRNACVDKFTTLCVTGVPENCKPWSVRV

For orientation: EC50 means the concentration at which the effect is half-maximal. For the compound `O=c1[nH]c(=O)c2c[nH]nc2[nH]1` [oxypurinol], the “Emax (maximum inhibition of uric acid production)” value at xanthine oxidase (XO) [1] was 0.84. Besides, the EC50 on xanthine oxidase (XO) [2] (plasma concentration giving half-maximal inhibition of production rate, typical value, read-out: EC50 (reducing uric acid production) (converted)) is 85700 nM. In addition, the “Decrease of oxypurinol exposure when administered together with verinurad” value in data set [3] (12 mg verinurad, according to the model) is reported as “approximately 30%”. For the same compound, the Vd in data set [3] (human, in vivo, oral, read-out: Central volume of distribution) is 45.7 L. In addition, the Absorption rate constant in data set [3] (oxypurinol after allopurinol dosing, popPK estimate) was 0.3343 h⁻¹.
As for `Cc1nc(-c2ccc(OCC(C)C)c(C#N)c2)sc1C(=O)O` [febuxostat], the “Emax (maximum inhibition of uric acid production)” value at xanthine oxidase (XO) [1] is 1. Further, the EC50 on xanthine oxidase (XO) [2] is 405 nM. In addition, the “Febuxostat EC50 difference, healthy volunteers versus hyperuricemic patients” value at xanthine oxidase (XO) [2] (human, in vivo) was “no differences; also recorded: not found to be significantly different”.
Take `CC(C)(Sc1ccncc1-c1ccc(C#N)c2ccccc12)C(=O)O` [verinurad]: the EC50 on URAT1 [4] (plasma concentration giving half-maximal inhibition of reabsorption, typical value, healthy volunteers, read-out: Verinurad EC50 (reducing uric acid reuptake) (converted)) is 83.2 nM and 84.4 nM; on URAT1 [4] (plasma concentration, symptomatic hyperuricemic (gout) patients, read-out: Verinurad EC50, symptomatic hyperuricemic (gout) subjects (converted)), 106 nM and 107 nM. Further, on URAT1 [4] (studies D5495C00001 and D5495C00007), the “Verinurad EC50 difference, asymptomatic hyperuricemic patients versus healthy volunteers” value is reported as “no significant difference”. In addition, the “Emax (maximum increase in fractional excretion of uric acid)” value on URAT1 [5] is given as 0.7.
